Columns and labels:
[1] = system: chicken NPSR1; test: pGL3-CRE-luciferase reporter assay; assay type: cell-based; conditions: H89 (10 μM) added 0.5 h before cNPS20 (10 nM, 6 h); CHO cells expressing cNPSR1; P<0.01 vs. peptide treatment; Figure 4E
[2] = system: rats; conditions: ref Smith et al., 2006; cited from earlier work
[3] = system: rodents; conditions: central administration, cited from earlier work
[4] = system: chickens; conditions: ref Smith et al., 2006; cited from earlier work
[5] = system: rats; conditions: administration of NPS, ref Zhang et al., 2014; cited from earlier work
[6] = system: chicken NPSR1; test: pGL3-NFAT-RE-luciferase reporter assay; assay type: cell-based; conditions: 2-APB (100 μM) added 0.5 h before cNPS20 (10 nM, 6 h); CHO cells expressing cNPSR1; P<0.01 vs. peptide treatment; Figure 4D

Compound: O=S(=O)(NCCNC/C=C/c1ccc(Br)cc1)c1cccc2cnccc12 [H89]
- Effect on cNPS20-induced CRE luciferase activity [1]: significantly inhibited

Compound: neuropeptide S (SFRNGVGSGIKKTSFRRAKS; printed: Ser-Phe-Arg-Asn-Gly- Val-Gly-Ser-Gly-Ile-Lys-Lys-Thr-Ser-Phe-Arg-Arg-Ala-Lys-Ser) [NPS]
- ACTH and corticosterone secretion (hypothalamic-pituitary-adrenal axis activity) [2]: stimulation of adrenocorticotropic hormone (ACTH) and corticosterone secretion in rats
- Hypothalamus-pituitary-adrenal axis and food intake, rats [2]: stimulate the hypothalamus-pituitary-adrenal axis and inhibit food intake in rats and chickens
- Length of ketamine-induced anesthesia ([3]; ref Kushikata et al., 2011): decreased the length of ketamine-induced anesthesia
- Memory ([3]; ref Okamura et al., 2011): enhanced memory
- Anxiety-related effect ([3]; ref Xu et al., 2004): anxiolytic effects
- Hypothalamus-pituitary-adrenal axis and food intake, chickens [4]: stimulate the hypothalamus-pituitary-adrenal axis and inhibit food intake in rats and chickens
- Anxiolytic and antinociceptive effects [5]: anxiolytic, and antinociceptive effects in rats

Compound: NCCOB(c1ccccc1)c1ccccc1 [2-APB]
- Effect on cNPS20-induced NFAT-RE luciferase activity [6]: could block cNPS20-induced luciferase activity of CHO cells expressing cNPSR1
